The record followed here is patent publication US8741262B2, “Targeted radiotherapy” (Katholieke Universiteit Leuven, K.U. Leuven R&D, priority 2007, dated 2014).

The test system of the data set is liver radiation-induced fibrosarcoma (RIF-1), RFA-induced necrosis. Description: Hypericin distribution in liver RIF-1 tumor in mice after radiofrequency ablation, fluoromacroscopy and fluorescence microscopy. It counts as in vivo. Conditions: 5 mg/kg iv 24 h after RFA, 3 d after injection. How it is done: The rectangular frame in A and B indicates where micrographs (C and D) were approximately focused. […] Thus, the prolonged retention of hypericin in necrosis matches well the radiation half life of iodine-131 (8 d) or yttrium-90 (64 h), which offers an ideal condition for the present adjuvant anti-cancer radiotherapy with combined use of a small molecule therapeutically labeled NACCs featuring multi-millimeter irradiation penetration (max. range of beta particles in tissue is 2.4 mm for iodine-131 and 12 mm for yttrium-90).

Consider `Cc1cc(O)c2c(=O)c3c(O)cc(O)c4c5c(O)cc(O)c6c(=O)c7c(O)cc(C)c8c1c2c(c34)c(c78)c65` [hypericin], for which the “Fluorescence microscopy of necrotic tumor regions” value is listed as “can still be detected in RFA-induced necrotic tumor regions (NT)”; the “Tissue distribution by UV light fluoromacroscopy” value is “almost completely cleared from viable liver (VL) and viable tumor (VT), but is retained only in necrotic tumor (NT) and necrotic liver (NL)”.
